Results taken from patent US8580809B2, “Filamin A-binding anti-inflammatory analgesic” (Pain Therapeutics, Inc., priority 2009, dated 2013).

Target: T1, mu opiate receptor (MOR) (Rattus norvegicus, UniProt P33535)
T1 construct: from tissue; host or cells: rat striatal membrane preparation
Test: MOR agonist activity using [35S]GTPγS binding assay in striatal membranes
Format: biochemical
Conditions: for MOR agonist activity, [35S]GTPγS binding to Gαo, FLNA-binding compound as agonist 0.1 μM: 0.1 μM compound; for MOR agonist activity, [35S]GTPγS binding to Gαo, FLNA-binding compound as agonist 0.1 μM / MOR agonist activity, [35S]GTPγS binding to Gαo, FLNA-binding compound as agonist 1 μM: striatal membranes; for MOR agonist activity, [35S]GTPγS binding to Gαo, 1 μM + BFNA: 1 μM compound + 1 μM β-funaltrexamine; for MOR agonist activity, [35S]GTPγS binding to Gαo, FLNA-binding compound as agonist 1 μM: 1 μM compound
Procedure: To assess the mu opiate receptor (MOR) agonist activity of positive compounds from the FLNA screening, compounds were tested in a [^35S]GTPγS binding assay using striatal membranes.
Striatal tissue was homogenized in 10 volumes of ice cold 25 mM HEPES buffer, pH 7.4, which contained 1 mM EGTA, 100 mM sucrose, 50 μg/ml leupeptin, 0.04 mM PMSF, 2 μg/ml soybean trypsin inhibitor and 0.2% 2-mercaptoethanol. The homogenates were centrifuged at 800×g for 5 minutes and the supernatants were centrifuged at 49,000×g for 20 minutes.
The resultant striatal membrane preparation (200 μg) was admixed and maintained (incubated) at 30° C. for 5 minutes in reaction buffer as above that additionally contained 1 mM MgCl2 and 0.5 nM [^35S]GTPγS (0.1 μCi/assay, PerkinElmer Life and Analytical Sciences) in a total volume of 250 μl and continued for 5 minutes in the absence or presence of 0.1-10 μM of an assayed compound of interest. The reaction was terminated by dilution with 750 μl of ice-cold reaction buffer that contained 20 mM MgCl2 and 1 mM EGTA and immediate centrifugation at 16,000×g for 5 minutes.
The resulting pellet was solubilized by sonicating for 10 seconds in 0.5 ml of immunoprecipitation buffer containing 0.5% digitonin, 0.2% sodium cholate and 0.5% NP-40. Normal rabbit serum (1 μl) was added to 1 ml of lysate and incubated at 25° C. for 30 minutes. Nonspecific immune complexes were removed by incubation with 25 μl of protein A/G-conjugated agarose beads at 25° C. for 30 minutes followed by centrifugation at 5,000×g at 4° C. for 5 minutes. The supernatant was divided and separately incubated at 25° C. for 30 minutes with antibodies raised against Gαo proteins (1:1,000 dilutions).
The immunocomplexes so formed were collected by incubation at 25° C. for 30 minutes with 40 μl of agarose-conjugated protein A/G beads and centrifugation at 5,000×g at 4° C. for 5 minutes. The pellet was washed and suspended in buffer containing 50 mM Tris-HCl, pH 8.0, and 1% NP-40. The radioactivity in the suspension was determined by liquid scintillation spectrometry. […] DAMGO (H-Tyr-D-Ala-Gly-N-MePhe-Gly-OH; 1 or 10 μM) was used as a positive control.

T1 sequence (P33535 whole entry): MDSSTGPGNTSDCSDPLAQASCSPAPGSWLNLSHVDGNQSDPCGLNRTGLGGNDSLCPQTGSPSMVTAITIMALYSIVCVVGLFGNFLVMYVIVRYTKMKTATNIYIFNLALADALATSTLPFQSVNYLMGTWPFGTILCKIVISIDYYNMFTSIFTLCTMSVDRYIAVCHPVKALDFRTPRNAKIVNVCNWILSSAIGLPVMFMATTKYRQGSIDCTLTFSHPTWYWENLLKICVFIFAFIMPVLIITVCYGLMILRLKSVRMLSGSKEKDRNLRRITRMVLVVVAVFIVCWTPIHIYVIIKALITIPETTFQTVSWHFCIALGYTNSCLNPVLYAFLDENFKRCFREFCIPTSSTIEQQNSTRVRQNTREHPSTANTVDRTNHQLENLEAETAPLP

| Compound | MOR agonist activity, [35S]GTPγS binding to Gαo, FLNA-binding compound as agonist 0.1 μM [%] | MOR agonist activity, [35S]GTPγS binding to Gαo, 1 μM + BFNA [%] | MOR agonist activity, [35S]GTPγS binding to Gαo, FLNA-binding compound as agonist 1 μM [%] |
| --- | --- | --- | --- |
| O=S(=O)(c1ccc(-c2ccccc2)cc1)N1CCC2(CC1)OCCN2S(=O)(=O)c1ccc(-c2ccccc2)cc1 [Compound C0010] | 136.5 | 89.1 | 307.0 |
| O=S(=O)(c1cccs1)N1CCC2(CC1)OCCN2S(=O)(=O)c1cccs1 [Compound C0141M] | 161.5 | 47.9 | 213.9 |
| CC(C)c1ccc(S(=O)(=O)N2CCC3(CC2)OCCN3S(=O)(=O)c2ccc(C(C)C)cc2)cc1 [Compound C0007] | 79.1 | 10.9 | 195.0 |
| CC(=O)Nc1ccc(S(=O)(=O)N2CCC3(CC2)OCCN3S(=O)(=O)c2ccc(NC(C)=O)cc2)cc1 [Compound C0013] | 156.6 | 39.6 | 301.2 |
| CNc1ccc(S(=O)(=O)N2CCC3(CC2)OCCN3S(=O)(=O)c2ccc(NC)cc2)cc1 [Compound C0024] | 178.4 | 59.3 | 229.6 |
| O=S(=O)(c1ccccc1)N1CCC2(CC1)OCCN2S(=O)(=O)c1ccccc1 [Compound C0016] | 172.7 | 96.7 | 230.5 |
| CC(=O)c1ccc(C(=O)N2CCC3(CC2)OCCN3C(=O)c2ccc(C(C)=O)cc2)cc1 [Compound C0054] | 68.2 | 43.5 | 127.0 |
| CC(=O)c1ccc(S(=O)(=O)N2CCC3(CC2)NC(=O)C(Cc2cnc[nH]2)N3S(=O)(=O)c2ccc(C(C)=O)cc2)cc1 (stereo not drawn) [Compound C0084M] | 163.1 | 133.2 | 255.5 |
| O=S(=O)(c1ccc(C(F)(F)F)cc1)N1CCC2(CC1)OCCN2S(=O)(=O)c1ccc(C(F)(F)F)cc1 [Compound C0012] | 96.8 | 184.4 | 224.8 |
| N#Cc1ccccc1S(=O)(=O)N1CCC2(CC1)OCCN2S(=O)(=O)c1ccccc1C#N [Compound C0004] | 122.0 | 65.8 | 228.4 |
| COc1ccc(C(=O)N2CCOC23CCN(S(=O)(=O)c2ccc(OC)cc2)CC3)cc1 [Compound C0019] | 104.4 | 52.8 | 176.6 |
| COc1ccc(S(=O)(=O)N2CCC3(CC2)OCCN3S(=O)(=O)c2ccc(OC)c(OC)c2)cc1OC [Compound C0049] | 106.6 | 81.0 | 210.0 |
| CC(=O)c1ccc(S(=O)(=O)N2CCC3(CC2)OCC(CCCCN(C)C)N3S(=O)(=O)c2ccc(C(C)=O)cc2)cc1 (stereo not drawn) [Compound C0080M] | 187.9 | 167.1 | 205.4 |
| O=S(=O)(c1ccc(Br)cc1C(F)(F)F)N1CCC2(CC1)OCCN2S(=O)(=O)c1ccc(Br)cc1C(F)(F)F [Compound C0068] | 107.2 | 165.9 | 263.1 |
| O=S(=O)(c1ccc(Br)cc1F)N1CCC2(CC1)OCCN2S(=O)(=O)c1ccc(Br)cc1F [Compound C0078] | 138.1 | 170.7 | 236.6 |
| Cc1cccc(S(=O)(=O)N2CCC3(CC2)OCCN3S(=O)(=O)c2cccc(C)c2)c1 [Compound C0014] | 144.9 | 76.3 | 153.5 |
| N#Cc1ccc(S(=O)(=O)N2CCC3(CC2)OCCN3S(=O)(=O)c2ccc(C#N)cc2)cc1 [Compound C0008] | 71.2 | 2.8 | 201.6 |
| O=C(c1ccc([N+](=O)[O-])cc1)N1CCC2(CC1)OCCN2C(=O)c1ccc([N+](=O)[O-])cc1 [Compound C0032] | 145.4 | 80.9 | 202.0 |
| O=C1CN(Cc2ccccc2)C2(CCN(S(=O)(=O)c3cc(Cl)cc(Cl)c3O)CC2)N1 [Compound C0138M] | 126.9 | 51.5 | 183.9 |
| O=C(OCc1ccccc1)c1ccc(S(=O)(=O)N2CCC3(CC2)OCCN3S(=O)(=O)c2ccc(C(=O)OCc3ccccc3)cc2)cc1 [Compound C0042] | 167.1 | 110.6 | 260.9 |
| COc1ccc(S(=O)(=O)N2CCC3(OCCN3S(=O)(=O)c3ccc(OC)cc3)C3CCCCC32)cc1 (stereo not drawn) [Compound C0144M] | 186.3 | 125.9 | 295.9 |
| O=S(=O)(c1ccc(Br)cc1)N1CCC2(CC1)OCCN2S(=O)(=O)c1ccc(Br)cc1 [Compound C0025] | 235.7 | 80.2 | 320.7 |
| O=S(=O)(c1ccc(C(F)(F)F)cc1Br)N1CCC2(CC1)OCCN2S(=O)(=O)c1ccc(C(F)(F)F)cc1Br [Compound C0071] | 276.3 | 177.1 | 355.3 |
| O=S(=O)(c1ccc(F)cc1)N1CCC2(CC1)OCCN2S(=O)(=O)c1ccc(F)cc1 [Compound C0029] | 175.4 | 16.6 | 308.8 |
